Measured values reported in patent publication US20100234395A1, “UREIDE DERIVATIVE AND PHARMACEUTICAL APPLICATION THEREOF” (TORAY INDUSTRIES, INC., priority 2006, published 2010).
Read-outs that look alike come from different tables or passages of the source.

Key:
COX-1 = target: T1, COX-1 (Homo sapiens, UniProt P23219); assay: Activity of inhibiting COX-1 in human blood (thromboxane B2 after ionomycin); assay type: cell-based; conditions: thromboxane B2 production
T1 construct: Human blood that had been sampled with the use of heparin (19 units/ml) was used; from tissue; host or cells: human whole blood (heparinised)
Method: Human blood that had been sampled with the use of heparin (19 units/ml) was used. Blood was fractionated to reaction tubes in amounts of 500 μl, the test compound or solvent was added thereto, and the resultants were incubated at 37° C. for 60 minutes. Dimethyl sulfoxide (DMSO) was used as a solvent for the test compound. Thereafter, ionomycin (30 nM) was added, and the reaction was allowed to proceed for 30 minutes. After the completion of the reaction, the supernatant (blood plasma) was recovered via centrifugation at 4° C., and the amount of thromboxane B2 in the plasma was quantified using a kit (519031, Cayman Chemical). The amount of thromboxane B2 produced via the addition of ionomycin was designated as 100%, and the concentration of the test compound that inhibits 50% of such reaction was represented by the IC50 value.

ddY mice = assay: Acetic acid writhing test in mice (analgesic effects); assay type: in vivo; conditions: for ED50: Mus musculus
Method: ddY mice were grown for at least 16 hours under fasting conditions while free water intake was allowed, and a solution of the test compound or a solvent was orally administered thereto (0.1 ml/10 g). As a solvent for a solution of the test compound, dimethyl sulfoxide (DMSO):Tween 80:27% hydroxypropyl-P-cyclodextrin (hereafter abbreviated to “HP-β-CD”) (1:1:8) or 27% HP-β-CD was used. A solution of 0.6% acetic acid (0.1 ml/10 g) was administered intraperitoneally 45 minutes after administration to induce a writhing reaction (i.e., a movement of stretching or arching the body). The number of the writhing reactions that had occurred for the period from 10 minutes after administration of the acetic acid solution to 10 minutes thereafter was counted, and the number of times was designated as an indicator of pain. The number of times of reactions in the group to which a solvent had been administered was designated as 100%, and the concentration of the test compound that had inhibited 50% of such reaction was designated as the ED50 value.
The compound of Reference Example 78 is disclosed in the claims of JP Patent Publication (kohyo) No. 2006-517535 A, the compounds of Reference Examples 93 and 199 are disclosed in the claims of JP Patent No. 3003148, and the compound of Reference Example 103 is disclosed in the claims of JP Patent Publication (kohyo) No. 2006-514095 A. Thus, these compounds were compared with the compounds of the present invention having similar structures in terms of analgesic effects with oral administration (Table 4) or subcutaneous administration (Table 5). Dimethyl sulfoxide (DMSO):Tween 80:27% HP-β-CD (1:1:8) or 27% HP-β-CD was used as a solvent for the test compound.

COX-2 = target: T2, COX-2 (Homo sapiens, UniProt P35354); assay: Activity of inhibiting COX-2 in human blood (prostaglandin E2 after lipopolysaccharide); assay type: cell-based; conditions: prostaglandin E2 production
T2 construct: Human blood that had been sampled with the use of heparin (19 units/ml) was used; from tissue; host or cells: human whole blood (heparinised), aspirin-pretreated, stimulated with lipopolysaccharide
T2 sequence (P35354 18-604): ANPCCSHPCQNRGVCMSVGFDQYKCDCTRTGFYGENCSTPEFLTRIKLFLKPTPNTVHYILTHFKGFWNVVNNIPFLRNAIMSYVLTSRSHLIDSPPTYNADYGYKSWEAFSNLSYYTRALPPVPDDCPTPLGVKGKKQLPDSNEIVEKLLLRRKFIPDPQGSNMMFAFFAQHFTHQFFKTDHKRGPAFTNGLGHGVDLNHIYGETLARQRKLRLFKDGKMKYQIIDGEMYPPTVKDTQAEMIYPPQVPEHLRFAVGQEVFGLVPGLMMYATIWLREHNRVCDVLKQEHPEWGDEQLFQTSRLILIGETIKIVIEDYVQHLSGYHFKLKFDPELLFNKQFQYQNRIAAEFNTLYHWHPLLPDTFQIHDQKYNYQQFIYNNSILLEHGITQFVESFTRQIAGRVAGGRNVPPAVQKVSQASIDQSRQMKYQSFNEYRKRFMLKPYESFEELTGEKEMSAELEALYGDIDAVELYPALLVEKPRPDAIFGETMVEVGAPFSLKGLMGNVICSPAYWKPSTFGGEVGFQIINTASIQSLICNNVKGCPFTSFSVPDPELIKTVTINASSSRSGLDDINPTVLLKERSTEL
Method: Human blood that had been sampled with the use of heparin (19 units/ml) was used. Blood was fractionated to reaction tubes in amounts of 500 μl, aspirin (12 μg/ml) was added thereto, and the resultants were incubated at 37° C. for 6 hours. Thereafter, the test compound or solvent, and lipopolysaccharide (10 μg/ml) were added, and the reaction was allowed to proceed for 18 hours. After the completion of the reaction, the supernatant (blood plasma) was recovered via centrifugation at 4° C., and the amount of prostaglandin E2 in the plasma was quantified using a kit (514010, Cayman Chemical). Dimethyl sulfoxide (DMSO) was used as a solvent for the test compound. The amount of prostaglandin E2 produced via the addition of lipopolysaccharide was designated as 100%, and the concentration of the test compound that inhibits 50% of such reaction was represented by the IC50 value.

[1] = Table 4, oral administration, comparison with similar known compound, read-out: ED50 (mg/kg) [90% confidence limit]
[2] = oral administration 45 minutes before 0.6% acetic acid i.p., 50% inhibition of writhing reactions, read-out: ED50 (mg/kg)[90% confidence limit]
[3] = sc, Table 5, subcutaneous administration, read-out: ED50 (mg/kg) [90% confidence limit]

T1 sequence (P23219 24-599): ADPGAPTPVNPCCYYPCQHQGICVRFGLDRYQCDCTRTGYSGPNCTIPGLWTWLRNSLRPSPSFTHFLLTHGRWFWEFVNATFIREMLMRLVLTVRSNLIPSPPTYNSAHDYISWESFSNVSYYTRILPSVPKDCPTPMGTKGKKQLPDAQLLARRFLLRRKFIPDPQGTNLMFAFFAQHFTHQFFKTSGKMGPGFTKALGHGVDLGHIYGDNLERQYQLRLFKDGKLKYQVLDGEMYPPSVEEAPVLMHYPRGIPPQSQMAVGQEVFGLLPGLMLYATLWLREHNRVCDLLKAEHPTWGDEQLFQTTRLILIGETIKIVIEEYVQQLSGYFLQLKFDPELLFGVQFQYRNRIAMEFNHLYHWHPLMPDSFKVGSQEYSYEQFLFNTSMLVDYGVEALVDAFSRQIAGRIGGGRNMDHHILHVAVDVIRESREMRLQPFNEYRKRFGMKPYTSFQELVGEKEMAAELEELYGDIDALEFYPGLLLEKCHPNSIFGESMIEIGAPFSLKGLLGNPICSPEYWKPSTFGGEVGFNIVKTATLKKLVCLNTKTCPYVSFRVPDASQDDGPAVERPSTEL

| Structure (SMILES) | IC50 (COX-1) | IC50 (COX-2) | other results |
| --- | --- | --- | --- |
| COc1ccc(-c2nc(C3CCN(C(=O)N(C)O)CC3)oc2-c2ccc(OC)cc2)cc1 [Example 1, 4-(4,5-Bis(4-methoxyphenyl)oxazol-2-yl)-1-(N-hydroxy-N-methylcarbamoyl)piperidine] | < 100 nM | > 10 µM | ED50 (ddY mice; [1]): 2.02 mg/kg; ED50 (ddY mice; [2]): 2.02 mg/kg; activity ratio (analgesic effects) (ddY mice; oral administration, compared with Reference Example 78 (sulfate)): at least 49 times |
| COc1ccc(-c2oc(C3CCN(C(=O)N(C)O)CC3)nc2-c2ccc(C)cc2)cc1 [Example 4, 4-(5-(4-Methoxyphenyl)-4-(4-tolyl)oxazol-2-yl)-1-(N-hydroxy-N-methylcarbamoyl)piperidine] | < 100 nM | > 10 µM | ED50 (ddY mice; [2]): 4.02 mg/kg |
| CN(O)C(=O)N1CCC(c2nc(-c3ccc(F)cc3)c(-c3ccccc3)o2)CC1 [Example 13, 4-(4-(4-Fluorophenyl)-5-phenyloxazol-2-yl)-1-(N-hydroxy-N-methylcarbamoyl)piperidine] |  |  | ED50 (ddY mice; [2]): 2.62 mg/kg |
| COc1ccc(-c2nc(C3CCN(C(=O)N(O)C(C)C)CC3)oc2-c2ccc(OC)cc2)cc1 [Example 15, 4-(4,5-Bis(4-methoxyphenyl)oxazol-2-yl)-1-(N-isopropyl-N-hydroxycarbamoyl)piperidine] | < 100 nM | > 10 µM |  |
| COc1ccc(-c2nc(C3CCN(C(=O)N(O)C4CCCCC4)CC3)oc2-c2ccc(OC)cc2)cc1 [Example 16, 4-(4,5-Bis(4-methoxyphenyl)oxazol-2-yl)-1-(N-cyclohexyl-N-hydroxycarbamoyl)piperidine] | < 100 nM | > 10 µM |  |
| CCN(O)C(=O)N1CCC(c2nc(-c3ccc(OC)cc3)c(-c3ccc(OC)cc3)o2)CC1 [Example 19, 4-(4,5-Bis(4-methoxyphenyl)oxazol-2-yl)-1-(N-hydroxy-N-ethylcarbamoyl)piperidine] | < 100 nM | > 10 µM |  |
| COc1ccc(-c2nc(C3CCN(C(=O)N(C)OC)CC3)oc2-c2ccc(OC)cc2)cc1 [Example 24, 4-(4,5-Bis(4-methoxyphenyl)oxazol-2-yl)-1-(N-methoxy-N-methylcarbamoyl)piperidine] | < 100 nM | > 10 µM |  |
| COc1ccc(-c2cc(C3CCN(C(=O)N(C)O)CC3)[nH]c2-c2ccc(OC)cc2)cc1 [Example 34, 4-(4,5-Bis(4-methoxyphenyl)-1H-pyrrol-2-yl)-1-(N-hydroxy-N-methylcarbamoyl)piperidine] | < 100 nM | > 10 µM |  |
| COc1ccc(-c2cc(C3CCN(C(=O)N(C)O)CC3)oc2-c2ccc(OC)cc2)cc1 [Example 38, 4-(4,5-bis(4-methoxyphenyl)furan-2-yl)-1-(N-hydroxy-N-methylcarbamoyl)piperidine] | < 100 nM | > 10 µM |  |
| COc1ccc(-c2cc(C3CCN(C(=O)N(C)O)CC3)sc2-c2ccc(OC)cc2)cc1 [Example 39, 4-(4,5-Bis(4-methoxyphenyl)thiophen-2-yl)-1-(N-hydroxy-N-methylcarbamoyl)piperidine] | < 100 nM | > 10 µM |  |
| COc1ccc(-c2nc(C3(C)CCN(C(=O)N(C)O)CC3)oc2-c2ccc(OC)cc2)cc1 [Example 42, 4-(4,5-Bis(4-methoxyphenyl)oxazol-2-yl)-1-(N-hydroxy-N-methylcarbamoyl)-4-methylpiperidine] | < 100 nM | > 10 µM |  |
| COc1ccc(-c2nc(C3(c4ccccc4)CCN(C(=O)N(C)O)CC3)oc2-c2ccc(OC)cc2)cc1 [Example 48, 4-(4,5-Bis(4-methoxyphenyl)oxazol-2-yl)-(N-hydroxy-N-methylcarbamoyl)-4-phenylpiperidine] | < 100 nM | > 10 µM |  |
| COc1ccc(-c2nc(C3(C)CCN(C(=O)N(C)O)CC3)sc2-c2ccc(OC)cc2)cc1 [Example 55, 4-(4,5-Bis(4-methoxyphenyl)thiazol-2-yl)-1-(N-hydroxy-N-methylcarbamoyl)-4-methylpiperidine] | < 100 nM | > 10 µM |  |
| COc1ccc(-c2nc(N3CCN(C(=O)N(C)O)CC3)sc2-c2ccc(OC)cc2)cc1 [Example 57, 4-(4,5-Bis(4-methoxyphenyl)thiazol-2-yl)-1-(N-hydroxy-N-methylcarbamoyl)piperazine] |  |  | ED50 (ddY mice; [2]): 9.79 mg/kg |
| COc1ccc(-c2nc(C3CCN(C(=O)N(O)C(C)C)CC3)sc2-c2ccc(OC)cc2)cc1 [Example 60, 4-(4,5-Bis(4-methoxyphenyl)thiazol-2-yl)-1-(N-hydroxy-N-isopropylcarbamoyl)piperidine] | < 100 nM | > 10 µM |  |
| COc1ccc(-c2nc(C3CCN(C(=O)N(C)OC)CC3)sc2-c2ccc(OC)cc2)cc1 [Example 61, 4-(4,5-Bis(4-methoxyphenyl)thiazol-2-yl)-1-(N-methoxy-N-methylcarbamoyl)piperidine] | < 100 nM | > 10 µM |  |
| COc1ccc(-n2nc(C3CCN(C(=O)N(C)O)CC3)cc2-c2cccnc2OC)cc1 [Example 67, 4-(1-(4-Methoxyphenyl)-5-(2-methoxypyridin-3-yl)-1H-pyrazol-3-yl)-1-(N-hydroxy-N-methylcarbamoyl)piperidine] |  |  | ED50 (ddY mice; [2]): 2.51 mg/kg |
| COc1ccc(-c2cc(C3CC4CCC(C3)N4C(=O)N(C)O)nn2-c2ccc(OC)cc2)cc1 (stereo not drawn) [Example 68, 3-(1,5-Bis(4-methoxyphenyl)-1H-pyrazol-3-yl)-8-(N-hydroxy-N-methylcarbamoyl)-8-azabicyclo[3.2.1]octane] | < 100 nM | > 10 µM |  |
| CCCC1(c2nc(-c3ccc(OC)cc3)c(-c3ccc(OC)cc3)o2)CCN(C(=O)N(C)O)CC1 [Example 74, 4-(1,5-Bis(4-methoxyphenyl)oxazol-2-yl)-4-propyl-1-(N-hydroxy-N-methylcarbamoyl)piperidine] | < 100 nM | > 10 µM |  |
| COc1ccc(-c2nc(C3CCN(C(=O)N(C)O)CC3)oc2-c2ccc(OCCO)cc2)cc1 [Example 77] | < 100 nM | > 10 µM |  |
| CNC(=O)N1CCC(c2nc(-c3ccc(OC)cc3)c(-c3ccc(OC)cc3)s2)CC1 [Reference Example1 199, reference compound] |  |  | ED50 (ddY mice; [3]): 34.4 mg/kg |
| COc1ccc(-c2nc(C3CCNCC3)oc2-c2ccc(OC)cc2)cc1 [Reference Example 78, 4-(4,5-Bis(4-methoxyphenyl)oxazol-2-yl)piperidine, reference compound] |  |  | ED50 (ddY mice; [1]): > 100 mg/kg |
| COc1ccc(-c2nc(C3CCNCC3)sc2-c2ccc(OC)cc2)cc1 [Reference Example 93, 4-(4,5-Bis(4-methoxyphenyl)thiazol-2-yl)piperidine, reference compound] |  |  | ED50 (ddY mice; [3]): > 100 mg/kg |
| COc1ccc(-c2cc(C3CCNCC3)nn2-c2ccc(OC)cc2)cc1 [Reference Example 103, 4-(1,5-Bis(4-methoxyphenyl)-1H-pyrazol-3-yl)piperidine, reference compound] |  |  | ED50 (ddY mice; [3]): > 100 mg/kg |
